Data from ChEMBL document CHEMBL3508693 (2016).

Tests used:
[1] = % aliskiren hemifumarate recovered as M6 from M4 in urine following single oral dose of 300 mg [14C]SPP100 studied in healthy men; format: ADME, organism-based; settings: human, in vivo, at 300 mg
[2] = % aliskiren hemifumarate recovered as M6 from M4 in faeces following single oral dose of 300 mg [14C]SPP100 studied in healthy men; format: ADME, organism-based, Feces; settings: human, in vivo
[3] = % aliskiren hemifumarate recovered as M6 from M4 in urine and faeces following single oral dose of 300 mg [14C]SPP100 studied in healthy men; format: ADME, organism-based, Urine/Feces; settings: human, in vivo, at 300 mg
[4] = % aliskiren recovered as M6 from M4 in bile following single intravenous administration of 10 mg.Kg-1 [14C] aliskiren hemifumarate in male rat; format: ADME, organism-based, HAN:WIST(SPF); settings: in vivo
[5] = % aliskiren recovered as M6 from M4 in hydrolysed following single intravenous administration of 10 mg.Kg-1 [14C] aliskiren hemifumarate in male rat; format: ADME, organism-based, HAN:WIST(SPF), Bile; settings: in vivo
[6] = % aliskiren recovered as M6 from M4 in urine following single intravenous administration of 10 mg.Kg-1 [14C] aliskiren hemifumarate in male rat; format: ADME, organism-based, HAN:WIST(SPF); settings: in vivo
[7] = % aliskiren recovered as M6 from M4 of receiver rat following duodenal infusion of radioactivity through bile from donor rat treated with single intravenous administration of 10 mg.Kg-1 [14C] aliskiren hemifumarate; format: ADME, organism-based, HAN:WIST(SPF); settings: in vivo
[8] = % of radioactivity recovered as M6 from M4 in plasma following oral administration of [14C] aliskiren hemifumarate at 100 mg.Kg-1 level in rat; format: ADME, organism-based, Albino HAN:WIST; settings: in vivo
[9] = % of radioactivity recovered as M6 from M4 in urine following oral administration of [14C] aliskiren hemifumarate at 100 mg.Kg-1 level in rat; format: ADME, organism-based, Albino HAN:WIST; settings: in vivo
[10] = % of radioactivity recovered as M6 from M4 in faeces following oral administration of [14C] aliskiren hemifumarate at 100 mg.Kg-1 level in rat; format: ADME, organism-based, Albino HAN:WIST, Feces; settings: in vivo
[11] = % of radioactivity recovered as M6 from M4 in plasma following intravenous administration of [14C] aliskiren hemifumarate at 10 mg.Kg-1 level in rat; format: ADME, organism-based, Albino HAN:WIST; settings: in vivo
[12] = % of radioactivity recovered as M6 from M4 in urine following intravenous administration of [14C] aliskiren hemifumarate at 10 mg.Kg-1 level in rat; format: ADME, organism-based, Albino HAN:WIST; settings: in vivo
[13] = % of radioactivity recovered as M6 from M4 in faeces following intravenous administration of [14C] aliskiren hemifumarate at 10 mg.Kg-1 level in rat; format: ADME, organism-based, Albino HAN:WIST, Feces; settings: in vivo
[14] = % aliskiren recovered as metabolite M6 in plasma following 10 day repeated oral administration of [14C] aliskiren hemifumarate at 100 mg.Kg-1 level studied in rat; format: ADME, organism-based, Albino HAN:WIST; settings: in vivo, 240 h
[15] = % aliskiren recovered as metabolite M6 in urine following 10 day repeated oral administration of [14C] aliskiren hemifumarate at 100 mg.Kg-1 level studied in rat; format: ADME, organism-based, Albino HAN:WIST; settings: in vivo, 240 h
[16] = % aliskiren recovered as metabolite M6 in faeces following 10 day repeated oral administration of [14C] aliskiren hemifumarate at 100 mg.Kg-1 level studied in rat; format: ADME, organism-based, Albino HAN:WIST, Feces; settings: in vivo, 240 h
[17] = % aliskiren recovered as M5 from M1 in bile following single intravenous administration of 10 mg.Kg-1 [14C] aliskiren hemifumarate in male rat; format: ADME, organism-based, HAN:WIST(SPF); settings: in vivo
[18] = % aliskiren recovered as M5 from M1 in hydrolysed following single intravenous administration of 10 mg.Kg-1 [14C] aliskiren hemifumarate in male rat; format: ADME, organism-based, HAN:WIST(SPF), Bile; settings: in vivo
[19] = % aliskiren recovered as M5 from M1 in urine following single intravenous administration of 10 mg.Kg-1 [14C] aliskiren hemifumarate in male rat; format: ADME, organism-based, HAN:WIST(SPF); settings: in vivo
[20] = % aliskiren recovered as M5 from M1 of receiver rat following duodenal infusion of radioactivity through bile from donor rat treated with single intravenous administration of 10 mg.Kg-1 [14C] aliskiren hemifumarate; format: ADME, organism-based, HAN:WIST(SPF); settings: in vivo
[21] = % of radioactivity recovered as M5 from M1 in plasma following oral administration of [14C] aliskiren hemifumarate at 100 mg.Kg-1 level in rat; format: ADME, organism-based, Albino HAN:WIST; settings: in vivo
[22] = % of radioactivity recovered as M5 from M1 in urine following oral administration of [14C] aliskiren hemifumarate at 100 mg.Kg-1 level in rat; format: ADME, organism-based, Albino HAN:WIST; settings: in vivo
[23] = % of radioactivity recovered as M5 from M1 in faeces following oral administration of [14C] aliskiren hemifumarate at 100 mg.Kg-1 level in rat; format: ADME, organism-based, Albino HAN:WIST, Feces; settings: in vivo
[24] = % of radioactivity recovered as M5 from M1 in plasma following intravenous administration of [14C] aliskiren hemifumarate at 10 mg.Kg-1 level in rat; format: ADME, organism-based, Albino HAN:WIST; settings: in vivo
[25] = % of radioactivity recovered as M5 from M1 in urine following intravenous administration of [14C] aliskiren hemifumarate at 10 mg.Kg-1 level in rat; format: ADME, organism-based, Albino HAN:WIST; settings: in vivo
[26] = % of radioactivity recovered as M5 from M1 in faeces following intravenous administration of [14C] aliskiren hemifumarate at 10 mg.Kg-1 level in rat; format: ADME, organism-based, Albino HAN:WIST, Feces; settings: in vivo

In the case of `COc1ccc(C[C@@H](C[C@H](N)[C@@H](O)C[C@H](C(=O)NCC(C)(C)C(N)=O)C(C)C)C(C)C)cc1O[C@@H]1O[C@H](CO)[C@@H](O)[C@H](O)[C@H]1O`, the Compound recovery [1] is reported as < 0.1%, the Compound recovery [2] is reported as “OUTCOME = Not detected” and the Compound recovery [3] is reported as < 0.1%. For the same molecule, the Compound recovery [4] was 5%, the Compound recovery [5] was “OUTCOME = Not detected” and the Compound recovery [6] was 3.2%. For the same molecule, the Compound recovery [7] was 8.9%, the Compound recovery [8] was > 2% and the Compound recovery [9] was “<= 2%”. The Compound recovery [10] was “OUTCOME = Not detected or not investigated”, the Compound recovery [11] was “<= 2%” and the Compound recovery [12] was “OUTCOME = Not detected or not investigated”. For the same molecule, the Compound recovery [13] was “OUTCOME = Not detected or not investigated”, the Compound recovery [14] was “OUTCOME = Observed, VALUE = Minor amounts” and the Compound recovery [15] was “OUTCOME = Observed, VALUE = Minor amounts”. For the same molecule, the Compound recovery [16] was “OUTCOME = Observed, VALUE = Minor amounts”.
With `COCCCOc1cc(C[C@@H](C[C@H](N)[C@@H](O)C[C@H](C(=O)NCC(C)(C)C(N)=O)C(C)C)C(C)C)ccc1O[C@@H]1O[C@H](CO)[C@@H](O)[C@H](O)[C@H]1O` the Compound recovery [17] was 5%, the Compound recovery [18] was “OUTCOME = Not detected” and the Compound recovery [19] was 3.2%. The Compound recovery [20] was 8.9%, the Compound recovery [21] was > 2% and the Compound recovery [22] was “<= 2%”. The Compound recovery [23] was “OUTCOME = Not detected or not investigated”, the Compound recovery [24] was “<= 2%” and the Compound recovery [25] was “OUTCOME = Not detected or not investigated”. The Compound recovery [26] was “OUTCOME = Not detected or not investigated”.
